This is an account of results in US8633315B2, “Substituted hydroxyethyl amine compounds as beta-secretase modulators and methods of use” (Amgen Inc., priority 2007, dated 2014).

As a reminder, the IC50 is the concentration needed to halve the response being measured.

The target of one assay is BACE1 (Homo sapiens, UniProt P56817). Description: In vitro enzymatic BACE FRET (fluorescence resonance energy transfer) assay. Format: biochemical. The procedure, abridged: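 Cleavage of a quenched peptide FRET substrate (50 nM) in 0.05 M acetate pH 4.2, 10% DMSO, 100 uM genapol, 1 h incubation. Reaction stopped by Tris neutralization; fluorescence read at excitation 488 nm / […].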

Assay [1] concerns Cells stably expressing Amyloid Precursor Protein (APP). The assay is described as follows: In vitro BACE cell-based assay (HEK cell assay): Aβ40 in conditioned medium by sandwich ELISA. The settings on record: Homo sapiens, HEK293, 24 h, Aβ40 in conditioned medium after 24 h incubation. The procedure, abridged: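 APP-stably-expressing cells were grown 24 h in DMEM/10% FBS, then treated for 24 h with 10-point doses starting at 100 μM or 10 μM, at 0.1% DMSO final. Aβ40 in conditioned medium was measured by sandwich ELISA (pAb40 capture, biotinylated 6E10 detection, europium time-resolved fluorescence); IC50 from percent inhibition.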

Sequence of BACE1 (P56817 46-501, species assumed): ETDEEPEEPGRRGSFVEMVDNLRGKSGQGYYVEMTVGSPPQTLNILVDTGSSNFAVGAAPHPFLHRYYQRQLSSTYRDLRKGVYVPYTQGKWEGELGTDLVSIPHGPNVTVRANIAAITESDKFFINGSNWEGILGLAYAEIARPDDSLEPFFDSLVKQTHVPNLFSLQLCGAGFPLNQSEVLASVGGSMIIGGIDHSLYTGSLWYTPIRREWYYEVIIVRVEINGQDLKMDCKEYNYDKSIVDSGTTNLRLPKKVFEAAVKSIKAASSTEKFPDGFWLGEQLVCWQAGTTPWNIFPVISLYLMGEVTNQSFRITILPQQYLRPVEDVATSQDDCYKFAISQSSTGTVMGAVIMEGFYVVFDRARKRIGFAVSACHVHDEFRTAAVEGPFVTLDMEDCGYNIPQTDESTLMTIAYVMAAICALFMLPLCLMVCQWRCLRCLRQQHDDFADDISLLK

Turning to `C=CC[C@H](NC(=O)c1cscn1)[C@H](O)CN[C@H]1CC2(CCC2)Oc2ncc(CC(C)(C)C)cc21` [Example 134, N-((1S)-1-((1R)-2-(((4′S)-6′-(2,2-dimethylpropyl)-3′,4′-dihydrospiro[cyclobutane-1,2′-pyrano[2,3-b]pyridin]-4′-yl)amino)-1-hydroxyethyl)-3-buten-1-yl)-1,3-thiazole-4-carboxamide], the IC50 amounted to 130 nM on BACE1 and 664 nM in assay [1].

In the case of `C=CC[C@H](NC(=O)c1csc(F)c1)[C@H](O)CN[C@H]1CC2(CCC2)Oc2ncc(CC(C)(C)C)cc21` [Example 135, N-((1S)-1-((1R)-2-(((4′S)-6′-(2,2-dimethylpropyl)-3′,4′-dihydrospiro[cyclobutane-1,2′-pyrano[2,3-b]pyridin]-4′-yl)amino)-1-hydroxyethyl)-3-buten-1-yl)-5-fluoro-3-thiophenecarboxamide], the values for the 50% inhibitory concentration (IC50) (at BACE1; in assay [1]) were 137 nM and 1300 nM, respectively.

For the molecule `C=CC[C@H](NC(=O)C(C)(F)F)[C@H](O)CN[C@H]1CC2(CCC2)Oc2ncc(CC(C)(C)C)cc21` [Example 136, N-((1S)-1-((1R)-2-(((4′S)-6′-(2,2-dimethylpropyl)-3′,4′-dihydrospiro[cyclobutane-1,2′-pyrano[2,3-b]pyridin]-4′-yl)amino)-1-hydroxyethyl)-3-buten-1-yl)-2,2-difluoropropanamide], the results for the IC50 (at BACE1; in assay [1]) were 37 nM and 342 nM, respectively.

Regarding `C=CC[C@H](NC(=O)[C@@H](F)C(F)(F)F)[C@H](O)CN[C@H]1CC2(CCC2)Oc2ncc(CC(C)(C)C)cc21` [Example 137, (2R)-N-((1S)-1-((1R)-2-(((4′S)-6′-(2,2-dimethylpropyl)-3′,4′-dihydrospiro[cyclobutane-1,2′-pyrano[2,3-b]pyridin]-4′-yl)amino)-1-hydroxyethyl)-3-buten-1-yl)-2,3,3,3-tetrafluoropropanamide], the values for the IC50 (at BACE1; in assay [1]) were 79 nM and 633 nM, respectively.

For the molecule `C=CC[C@H](NC(=O)[C@H](F)C(F)(F)F)[C@H](O)CN[C@H]1CC2(CCC2)Oc2ncc(CC(C)(C)C)cc21` [Example 138, (2S)-N-((1S)-1-((1R)-2-(((4′S)-6′-(2,2-dimethylpropyl)-3′,4′-dihydrospiro[cyclobutane-1,2′-pyrano[2,3-b]pyridin]-4′-yl)amino)-1-hydroxyethyl)-3-buten-1-yl)-2,3,3,3-tetrafluoropropanamide], the IC50 at BACE1 is 115 nM; in assay [1] it was 194 nM.

Turning to `C=CC[C@H](NC(=O)[C@H]1CC1(F)F)[C@H](O)CN[C@H]1CC2(CCC2)Oc2ncc(CC(C)(C)C)cc21` [Example 139, (1R)-N-((1S)-1-((1R)-2-(((4′S)-6′-(2,2-dimethylpropyl)-3′,4′-dihydrospiro[cyclobutane-1,2′-pyrano[2,3-b]pyridin]-4′-yl)amino)-1-hydroxyethyl)-3-buten-1-yl)-2,2-difluorocyclopropanecarboxamide], the IC50 on BACE1 came out at 198 nM; in assay [1], 277 nM.

As to `C=CC[C@H](NC(=O)[C@@H]1CC1(F)F)[C@H](O)CN[C@H]1CC2(CCC2)Oc2ncc(CC(C)(C)C)cc21` [Example 140, (1S)-N-((1S)-1-((1R)-2-(((4′S)-6′-(2,2-dimethylpropyl)-3′,4′-dihydrospiro[cyclobutane-1,2′-pyrano[2,3-b]pyridin]-4′-yl)amino)-1-hydroxyethyl)-3-buten-1-yl)-2,2-difluorocyclopropanecarboxamide], the IC50 on BACE1 is 382 nM; in assay [1], 331 nM.

Regarding `C=CC[C@H](NC(=O)C(C)(C)F)[C@H](O)CN[C@H]1CC2(CCC2)Oc2ncc(CC(C)(C)C)cc21` [Example 141, N-((1S)-1-((1R)-2-(((4′S)-6′-(2,2-dimethylpropyl)-3′,4′-dihydrospiro[cyclobutane-1,2′-pyrano[2,3-b]pyridin]-4′-yl)amino)-1-hydroxyethyl)-3-buten-1-yl)-2-fluoro-2-methylpropanamide], the IC50 was determined as 951 nM on BACE1 and 483 nM in assay [1].

Consider `C=CC[C@H](NC(=O)[C@@H](F)c1ccccc1)[C@H](O)CN[C@H]1CC2(CCC2)Oc2ncc(CC(C)(C)C)cc21` [Example 142, (2S)-N-((1S)-1-((1R)-2-(((4′S)-6′-(2,2-dimethylpropyl)-3′,4′-dihydrospiro[cyclobutane-1,2′-pyrano[2,3-b]pyridin]-4′-yl)amino)-1-hydroxyethyl)-3-buten-1-yl)-2-fluoro-2-phenylethanamide], for which the IC50 on BACE1 was found to be 33 nM; in assay [1], 1560 nM.

Regarding `C=CC[C@H](NC(=O)[C@H](F)c1ccccc1)[C@H](O)CN[C@H]1CC2(CCC2)Oc2ncc(CC(C)(C)C)cc21` [Example 143, (2R)-N-((1S)-1-((1R)-2-(((4′S)-6′-(2,2-dimethylpropyl)-3′,4′-dihydrospiro[cyclobutane-1,2′-pyrano[2,3-b]pyridin]-4′-yl)amino)-1-hydroxyethyl)-3-buten-1-yl)-2-fluoro-2-phenylethanamide], the IC50 on BACE1 was 2890 nM; in assay [1], 539 nM.

In the case of `C=CC[C@H](NC(=O)COC(C)(C)C)[C@H](O)CN[C@H]1CC2(CCC2)Oc2ncc(CC(C)(C)C)cc21` [Example 144, 2-((1,1-dimethylethyl)oxy)-N-((1S)-1-((1R)-2-(((4′S)-6′-(2,2-dimethylpropyl)-3′,4′-dihydrospiro[cyclobutane-1,2′-pyrano[2,3-b]pyridin]-4′-yl)amino)-1-hydroxyethyl)-3-buten-1-yl)acetamide], the figures for the IC50 (at BACE1; in assay [1]) were 344 nM and 1130 nM, respectively.

On to `C=CC[C@H](NC(=O)COC(C)C)[C@H](O)CN[C@H]1CC2(CCC2)Oc2ncc(CC(C)(C)C)cc21` [Example 145, N-((1S)-1-((1R)-2-(((4′S)-6′-(2,2-dimethylpropyl)-3′,4′-dihydrospiro[cyclobutane-1,2′-pyrano[2,3-b]pyridin]-4′-yl)amino)-1-hydroxyethyl)-3-buten-1-yl)-2-((1-methylethyl)oxy)acetamide], for which the IC50 worked out at 77 nM at BACE1 and 301 nM in assay [1].

In the case of `C=CC[C@H](NC(=O)[C@@H](CC)OC)[C@H](O)CN[C@H]1CC2(CCC2)Oc2ncc(CC(C)(C)C)cc21` [Example 146, (2R)-N-((1S)-1-((1R)-2-(((4′S)-6′-(2,2-dimethylpropyl)-3′,4′-dihydrospiro[cyclobutane-1,2′-pyrano[2,3-b]pyridin]-4′-yl)amino)-1-hydroxyethyl)-3-buten-1-yl)-2-(methyloxy)butanamide], the IC50 on BACE1 worked out at 565 nM; in assay [1], 247 nM.

Regarding `C=CC[C@H](NC(=O)[C@H](CC)OC)[C@H](O)CN[C@H]1CC2(CCC2)Oc2ncc(CC(C)(C)C)cc21` [Example 147, (2S)-N-((1S)-1-((1R)-2-(((4′S)-6′-(2,2-dimethylpropyl)-3′,4′-dihydrospiro[cyclobutane-1,2′-pyrano[2,3-b]pyridin]-4′-yl)amino)-1-hydroxyethyl)-3-buten-1-yl)-2-(methyloxy)butanamide], the figures for the IC50 (at BACE1; in assay [1]) were 95 nM and 420 nM, respectively.
